Assay results taken from patent US12139492B2 (Endotarget Inc., priority 2021, dated 2024).
Where two headings read alike, the source gives them in different places.

How the values were obtained:
JeKo-1 cells = test: Antiproliferative effect, MTS cell viability assay, JeKo-1 cells; type: cell-based; settings: Homo sapiens; JeKo-1 mantle cell lymphoma cells; read-out: IC50 (anti-proliferation) JeKO-1 cells
Outline: (§1)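 Steps: seed B-cell lymphoma line; add compound at 0, 0.001, 0.01, 0.1, 1 or 10 μM; incubate 72 h; add MTS and read reduced tetrazolium (formazan) absorbance at 490 nm.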

Mino cells = test: Antiproliferative effect, MTS cell viability assay, Mino cells; type: cell-based; settings: Homo sapiens, MINO, Mino mantle cell lymphoma cells; read-out: IC50 (anti-proliferation) Mino cells
Outline: as §1

BTK = BTK (Homo sapiens, UniProt Q06187); test: Degradation of BTK protein in Namalwa cells (Western blot; DC50, Dmax); settings: for DC50: cell line not given
BTK, sequence (Q06187 whole entry): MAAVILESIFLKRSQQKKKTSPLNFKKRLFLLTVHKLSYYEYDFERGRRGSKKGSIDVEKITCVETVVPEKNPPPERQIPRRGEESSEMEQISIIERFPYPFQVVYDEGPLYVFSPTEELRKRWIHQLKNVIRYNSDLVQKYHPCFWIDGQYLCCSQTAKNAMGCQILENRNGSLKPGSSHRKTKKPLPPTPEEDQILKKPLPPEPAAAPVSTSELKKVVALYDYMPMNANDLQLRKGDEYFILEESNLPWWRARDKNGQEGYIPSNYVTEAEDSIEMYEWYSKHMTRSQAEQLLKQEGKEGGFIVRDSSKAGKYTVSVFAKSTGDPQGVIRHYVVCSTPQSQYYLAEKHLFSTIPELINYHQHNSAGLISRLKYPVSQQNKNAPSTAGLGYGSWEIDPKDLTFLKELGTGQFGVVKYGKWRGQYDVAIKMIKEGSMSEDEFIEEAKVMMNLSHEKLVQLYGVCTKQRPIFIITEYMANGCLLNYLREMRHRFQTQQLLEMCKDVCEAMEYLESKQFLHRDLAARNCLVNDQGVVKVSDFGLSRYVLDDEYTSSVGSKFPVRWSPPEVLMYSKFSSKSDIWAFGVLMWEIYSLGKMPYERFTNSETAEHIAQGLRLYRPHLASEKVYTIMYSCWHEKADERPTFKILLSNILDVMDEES

[1] = read-out: DC50 (BTK degradation), concentration giving 50% reduction of BTK expression level
[2] = read-out: Dmax (BTK degradation)

SMILES | Dmax (BTK) | DC50 (BTK; BTK degradation) | DC50 (BTK; [1]) | Dmax (BTK; [2]) | degradation of BTK protein (BTK; Namalwa B lymphocyte cells, various concentrations, 24 hours, Western blot) | IC50 (JeKo-1 cells) | IC50 (Mino cells)
NC(=O)c1c(-c2ccc(Oc3ccccc3)cc2)nn2c1NCCC2C1CCN(C(=O)N2CCC(CCN3CCC(c4ccc5c(c4)CN(C4CCC(=O)NC4=O)C5=O)CC3)CC2)CC1 (centres unmarked) [Compound 286, 7-(1-(4-(2-(4-(2-(2,6-dioxopiperidin-3-yl)-1-oxoisoindolin-5-yl)piperidin-1-yl)ethyl)piperidine-1-carbonyl)piperidin-4-yl)-2-(4-phenoxyphenyl)-4,5,6,7-tetrahydropyrazolo[1,5-a]pyrimidine-3-carboxamide] | > 75% | > 50 nM | – | – | – | 1000 to 10000 nM | 1000 to 10000 nM
Nc1ncnc2c1c(-c1ccc(Oc3ccccc3)cc1)nn2C1CCN(CC2CCN(CC3CCN(c4ccc5c(c4)C(=O)N(C4CCC(=O)NC4=O)C5=O)CC3)C2)CC1 (centres unmarked) [Compound 445, 5-(4-((3-((4-(4-amino-3-(4-phenoxyphenyl)-1H-pyrazolo(3,4-d)pyrimidin-1-yl)piperidin-1-yl)methyl)pyrrolidin-1-yl)methyl)piperidin-1-yl)-2-(2,6-dioxopiperidin-3-yl)isoindoline-1,3-dione] | – | – | 10 to 50 nM | > 90% | dose-dependent degradation | 1000 to 10000 nM | 1000 to 10000 nM
NC(=O)c1c(-c2ccc(Oc3ccccc3)cc2)nn2c1NCCC2C1CCN(C2CCN(C(=O)N3CCC(C4CCN(c5ccc6c(c5)C(=O)N(C5CCC(=O)NC5=O)C6=O)CC4)CC3)CC2)CC1 (centres unmarked) [Compound 343, 7-(1′-(1′-(2-(2,6-dioxopiperidin-3-yl)-1,3-dioxoisoindolin-5-yl)-[4,4′-bipiperidine]-1-carbonyl)-[1,4′-bipiperidin]-4-yl)-2-(4-phenoxyphenyl)-4,5,6,7-tetrahydropyrazolo[1,5-a]pyrimidine-3-carboxamide] | > 90% | < 10 nM | – | – | – | < 1000 nM | 1000 to 10000 nM
NC(=O)c1c(-c2ccc(Oc3ccccc3)cc2)nn2c1NCC[C@H]2C1CCN(C(=O)N2CCN(CCN3CCC(c4ccc5c(c4)C(=O)N(C4CCC(=O)NC4=O)C5=O)CC3)CC2)CC1 (stereo partly drawn) [Compound 303, (7S)-7-(1-(4-(2-(4-(2-(2,6-dioxopiperidin-3-yl)-1,3-dioxoisoindolin-5-yl)piperidin-1-yl)ethyl)piperazine-1-carbonyl)piperidin-4-yl)-2-(4-phenoxyphenyl)-4,5,6,7-tetrahydropyrazolo[1,5-a]pyrimidine-3-carboxamide] | > 75% | 10 to 50 nM | – | – | – | 1000 to 10000 nM | 1000 to 10000 nM
NC(=O)c1c(-c2ccc(Oc3ccccc3)cc2)nn2c1NCC[C@H]2C1CCN(CC2CCN(C(=O)N3CCC(CN4CCC(c5ccc6c(c5)CN(C5CCC(=O)NC5=O)C6=O)CC4)CC3)CC2)CC1 (stereo partly drawn) [Compound 416, (7S)-7-(1-((1-(4-((4-(2-(2,6-dioxopiperidin-3-yl)-1-oxoisoindolin-5-yl)piperidin-1-yl)methyl)piperidine-1-carbonyl)piperidin-4-yl)methyl)piperidin-4-yl)-2-(4-phenoxyphenyl)-4,5,6,7-tetrahydropyrazolo[1,5-a]pyrimidine-3-carboxamide] | – | – | 10 to 50 nM | > 75% | – | 1000 to 10000 nM | 1000 to 10000 nM
Nc1ncnc2c1c(-c1ccc(Oc3ccccc3)cc1)nn2C1CCN(C[C@H]2CCN(CC3CCN(c4ccc5c(c4)CN(C4CCC(=O)NC4=O)C5=O)CC3)C2)CC1 (stereo partly drawn) [Compound 446a, 3-(5-(4-(((R)-3-((4-(4-amino-3-(4-phenoxyphenyl)-1H-pyrazolo[3,4-d]pyrimidin-1-yl)piperidin-1-yl)methyl)pyrrolidin-1-yl)methyl)piperidin-1-yl)-1-oxoisoindolin-2-yl)piperidine-2,6-dione] | – | – | 10 to 50 nM | > 90% | – | 1000 to 10000 nM | 1000 to 10000 nM
NC(=O)c1c(-c2ccc(Oc3ccccc3)cc2)nn2c1NCC[C@H]2C1CCN(C(=O)N2CCC(CCN3CCC(c4ccc5c(c4)C(=O)N(C4CCC(=O)NC4=O)C5=O)CC3)CC2)CC1 (stereo partly drawn) [Compound 301, (7S)-7-(1-(4-(2-(4-(2-(2,6-dioxopiperidin-3-yl)-1,3-dioxoisoindolin-5-yl)piperidin-1-yl)ethyl)piperidine-1-carbonyl)piperidin-4-yl)-2-(4-phenoxyphenyl)-4,5,6,7-tetrahydropyrazolo[1,5-a]pyrimidine-3-carboxamide] | > 75% | 10 to 50 nM | – | – | – | 1000 to 10000 nM | 1000 to 10000 nM
NC(=O)c1c(-c2ccc(Oc3ccccc3)cc2)nn2c1NCCC2C1CCN(CCOCCOCCN2CCN(c3ccc4c(c3)C(=O)N(C3CCC(=O)NC3=O)C4=O)CC2)CC1 (centres unmarked) [Compound 269, 7-(1-(2-(2-(2-(4-(2-(2,6-dioxopiperidin-3-yl)-1,3-dioxoisoindolin-5-yl)piperazin-1-yl)ethoxy)ethoxy)ethyl)piperidin-4-yl)-2-(4-phenoxyphenyl)-4,5,6,7-tetrahydropyrazolo[1,5-a]pyrimidine-3-carboxamide] | > 90% | 10 to 50 nM | – | – | – | > 10000 nM | > 10000 nM
NC(=O)c1c(-c2ccc(Oc3ccccc3)cc2)nn2c1NCCC2C1CCN(C2CCN(C(=O)N3CCC(CC4CCN(c5ccc6c(c5)C(=O)N(C5CCC(=O)NC5=O)C6=O)CC4)CC3)CC2)CC1 (centres unmarked) [Compound 353, 7-(1′-(4-((1-(2-(2,6-dioxopiperidin-3-yl)-1,3-dioxoisoindolin-5-yl)piperidin-4-yl)methyl)piperidine-1-carbonyl)-[1,4′-bipiperidin]-4-yl)-2-(4-phenoxyphenyl)-4,5,6,7-tetrahydropyrazolo[1,5-a]pyrimidine-3-carboxamide] | > 90% | 10 to 50 nM | – | – | – | 1000 to 10000 nM | < 1000 nM
NC(=O)c1c(-c2ccc(Oc3ccccc3)cc2)nn2c1NCC[C@H]2C1CCN(C2CCN(C(=O)N3CCC(N4CCC(c5ccc6c(c5)C(=O)N(C5CCC(=O)NC5=O)C6=O)CC4)CC3)CC2)CC1 (stereo partly drawn) [Compound 387, (7S)-7-(1′-(4-(2-(2,6-dioxopiperidin-3-yl)-1,3-dioxoisoindolin-5-yl)-[1,4′-bipiperidine]-1′-carbonyl)-[1,4′-bipiperidin]-4-yl)-2-(4-phenoxyphenyl)-4,5,6,7-tetrahydropyrazolo[1,5-a]pyrimidine-3-carboxamide] | > 90% | 10 to 50 nM | – | – | – | 1000 to 10000 nM | 1000 to 10000 nM
Nc1ncnc2c1c(-c1ccc(Oc3ccccc3)cc1)nn2C1CCN(C[C@@H]2CCN(C[C@@H]3CCN(c4ccc5c(c4)C(=O)N(C4CCC(=O)NC4=O)C5=O)C3)C2)CC1 (stereo partly drawn) [Compound 447c, 5-((S)-3-(((S)-3-((4-(4-amino-3-(4-phenoxyphenyl)-1H-pyrazolo[3,4-d]pyrimidin-1-yl)piperidin-1-yl)methyl)pyrrolidin-1-yl)methyl)pyrrolidin-1-yl)-2-(2,6-dioxopiperidin-3-yl)isoindoline-1,3-dione] | – | – | < 10 nM | > 90% | – | 1000 to 10000 nM | 1000 to 10000 nM

Continued, in another order:

Dmax (BTK) | DC50 (BTK; BTK degradation) | DC50 (BTK; [1]) | Dmax (BTK; [2]) | degradation of BTK protein (BTK; Namalwa B lymphocyte cells, various concentrations, 24 hours, Western blot) | SMILES | IC50 (JeKo-1 cells) | IC50 (Mino cells)
– | – | > 50 nM | > 50% | – | Nc1ncnc2c1c(-c1ccc(Oc3ccccc3)cc1)nn2C1CCN(CCN2CCC(N3CCN(c4ccc5c(c4)CN(C4CCC(=O)NC4=O)C5=O)CC3)CC2)CC1 (centres unmarked) [Compound 458, 3-(5-(4-(1-(2-(4-(4-amino-3-(4-phenoxyphenyl)-1H-pyrazolo[3,4-d]pyrimidin-1-yl)piperidin-1-yl)ethyl)piperidin-4-yl)piperazin-1-yl)-1-oxoisoindolin-2-yl)piperidine-2,6-dione] | 1000 to 10000 nM | 1000 to 10000 nM
– | – | < 10 nM | > 90% | – | Nc1ncnc2c1c(-c1ccc(Oc3ccccc3)cc1)nn2[C@@H]1CCCN(CCNC(=O)N2CCN(c3ccc4c(c3)C(=O)N(C3CCC(=O)NC3=O)C4=O)CC2)C1 (stereo partly drawn) [Compound 526, N-(2-((R)-3-(4-amino-3-(4-phenoxyphenyl)-1H-pyrazolo[3,4-d]pyrimidin-1-yl)piperidin-1-yl)ethyl)-4-(2-(2,6-dioxopiperidin-3-yl)-1,3-dioxoisoindolin-5-yl)piperazine-1-carboxamide] | 1000 to 10000 nM | 1000 to 10000 nM
– | – | 10 to 50 nM | > 50% | – | Nc1ncnc2c1c(-c1ccc(Oc3ccccc3)cc1)nn2C1CCN(CCN2CC(CN3CCN(c4ccc5c(c4)CN(C4CCC(=O)NC4=O)C5=O)CC3)C2)CC1 (centres unmarked) [Compound 462, 3-(5-(4-((1-(2-(4-(4-amino-3-(4-phenoxyphenyl)-1H-pyrazolo[3,4-d]pyrimidin-1-yl)piperidin-1-yl)ethyl)azetidin-3-yl)methyl)piperazin-1-yl)-1-oxoisoindolin-2-yl)piperidine-2,6-dione] | 1000 to 10000 nM | 1000 to 10000 nM
– | – | < 10 nM | > 90% | – | Nc1ncnc2c1c(-c1ccc(Oc3ccccc3)cc1)nn2[C@@H]1CCCN(CC2CCN(CC3CCN(c4ccc(C(=O)NC5CCC(=O)NC5=O)cc4)CC3)CC2)C1 (stereo partly drawn) [Compound 515, 4-(4-((4-(((R)-3-(4-amino-3-(4-phenoxyphenyl)-1H-pyrazolo[3,4-d]pyrimidin-1-yl)piperidin-1-yl)methyl)piperidin-1-yl)methyl)piperidin-1-yl)-N-(2,6-dioxopiperidin-3-yl)benzamide] | 1000 to 10000 nM | < 1000 nM
– | – | 10 to 50 nM | > 75% | – | Nc1ncnc2c1c(-c1ccc(Oc3ccccc3)cc1)nn2C1CCN(CC2CCN(CC3CCN(c4ccc5c(c4)oc(=O)n5C4CCC(=O)NC4=O)CC3)C2)CC1 (centres unmarked) [Compound 541, 3-(6-(4-((3-((4-(4-amino-3-(4-phenoxyphenyl)-1H-pyrazolo[3,4-d]pyrimidin-1-yl)piperidin-1-yl)methyl)pyrrolidin-1-yl)methyl)piperidin-1-yl)-2-oxobenzo[d]oxazol-3(2H)-yl)piperidine-2,6-dione] | 1000 to 10000 nM | 1000 to 10000 nM
